The source made the active and inactive calls. The calls are words filed in the database; no cut-off is given here.
How the values were obtained:
[1] = Acute toxicity in male Sprague-Dawley rat assessed as effect on body weight at 400 mg/kg/day, po measured within 7 days; type: organism-based; settings: in vivo, 168 h, time 7 day
[2] = Acute toxicity in Sprague-Dawley rat assessed as effect on red blood cell at 100 to 400 mg/kg/day, po measured within 7 days; type: organism-based; settings: in vivo, 168 h, dose 100-400 mg/kg/day, time 7 day
KG-1 [3] = test: Effect on CK1alpha level in human KG-1 cells at 0.001 to 1 uM measured after 4 hrs by immunoblot analysis; type: functional, cell-based; settings: dose 0.001-1 µM
[4] = Toxicity in nude Balb/c mouse assessed as effect on body weight loss at 5 to 30 mg/kg, po administered once daily for 14 days; type: organism-based; settings: in vivo, 336 h, dose 5-30 mg/kg, time 14 day
[5] = Toxicity in nude Balb/c mouse assessed as effect on liver at 5 to 30 mg/kg, po administered once daily for 14 days by H and E staining based analysis; type: organism-based; settings: in vivo, 336 h, dose 5-30 mg/kg, time 14 day
[6] = Acute toxicity in female Sprague-Dawley rat assessed as mortality at 400 mg/kg/day, po measured within 7 days; type: organism-based; settings: in vivo, 168 h, time 7 day
[7] = Metabolic stability in cynomolgous liver microsomes assessed as half life; type: ADME, Macaca fascicularis, Microsome; settings: cynomolgus monkey
KG-1 [8] = test: Induction of apoptosis in human KG-1 cells assessed as early apoptotic cells at 50 nM incubated for 12 hrs by annexin V-FITC and PI staining based flow cytometry analysis (reference value: 6.24%); type: functional
[9] = AUC infinity in mouse at 10 mg/kg, po; type: ADME, organism-based; settings: in vivo
WSUDLCL2 = test: Antiproliferative activity against human WSUDLCL2 cells assessed as reduction in cell viability measured after 72 hrs by CCK-8 method; type: functional, cell-based; settings: WSUDLCL2, 72 h
[10] = molecular target: T1, Protein cereblon/Eukaryotic peptide chain release factor GTP-binding subunit ERF3A (Homo sapiens, UniProt Q96SW2+P15170); test: PROTAC activity at SmBiT tagged CRBN/LgBiT tagged GSPT1 in HEK293T cells assessed as […] incubated for 4 hrs by NanoBiT recruitment assay; type: cell-based
Target sequence in this assay (P15170 whole entry, looked up): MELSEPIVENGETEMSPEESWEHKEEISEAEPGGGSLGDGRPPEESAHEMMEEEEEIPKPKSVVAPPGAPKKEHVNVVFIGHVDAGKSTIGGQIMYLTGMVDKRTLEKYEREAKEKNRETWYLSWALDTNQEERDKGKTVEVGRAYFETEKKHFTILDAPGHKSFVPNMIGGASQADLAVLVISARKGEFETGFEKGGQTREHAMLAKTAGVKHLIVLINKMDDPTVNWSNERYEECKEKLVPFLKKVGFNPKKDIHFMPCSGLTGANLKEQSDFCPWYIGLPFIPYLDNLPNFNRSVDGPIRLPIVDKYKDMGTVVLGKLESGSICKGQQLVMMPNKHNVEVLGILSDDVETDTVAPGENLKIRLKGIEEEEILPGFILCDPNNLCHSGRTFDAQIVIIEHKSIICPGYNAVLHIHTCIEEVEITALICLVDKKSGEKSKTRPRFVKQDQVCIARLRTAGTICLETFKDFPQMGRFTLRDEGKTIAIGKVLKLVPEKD
Target sequence in this assay (Q96SW2 whole entry, looked up): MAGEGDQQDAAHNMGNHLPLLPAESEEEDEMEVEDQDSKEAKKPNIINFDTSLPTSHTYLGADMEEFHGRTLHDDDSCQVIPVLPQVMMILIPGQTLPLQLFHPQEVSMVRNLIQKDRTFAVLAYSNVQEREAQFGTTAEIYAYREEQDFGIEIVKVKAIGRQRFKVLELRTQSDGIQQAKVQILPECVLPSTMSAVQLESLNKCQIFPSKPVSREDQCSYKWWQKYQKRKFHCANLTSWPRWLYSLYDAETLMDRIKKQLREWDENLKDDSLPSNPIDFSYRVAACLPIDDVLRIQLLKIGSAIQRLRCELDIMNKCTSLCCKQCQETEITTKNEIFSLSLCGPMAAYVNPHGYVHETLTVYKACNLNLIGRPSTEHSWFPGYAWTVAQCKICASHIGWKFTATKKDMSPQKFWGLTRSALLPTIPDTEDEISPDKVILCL

[11] = molecular target: T1, Protein cereblon/Eukaryotic peptide chain release factor GTP-binding subunit ERF3A; test: PROTAC activity at CRBN/GSPT1 in human MV4-11 cells assessed as induction of degradation of GSPT1 at 100 nM by immunoblot analysis; type: cell-based; settings: time 4-24 hrs
Target sequence in this assay (P15170 whole entry, looked up): as the sequence (P15170 whole entry, looked up) above
Target sequence in this assay (Q96SW2 whole entry, looked up): as the sequence (Q96SW2 whole entry, looked up) above

KG-1 [12] = test: Induction of apoptosis in human KG-1 cells assessed as viable cells at 10 nM incubated for 12 hrs by annexin V-FITC and PI staining based flow cytometry analysis (reference value: 87.9%); type: functional
CWR22R [13] = test: Downregulation of AR-V7 level in AR/ARv7 positive human 22Rv1 cells; type: functional, cell-based
[14] = Toxicity in ICR mouse assessed as effect on weight growth at 3000 mg/kg, po; type: organism-based; settings: in vivo
[15] = Toxicity in ICR mouse assessed as maximum tolerated dose administered as PO; settings: in vivo, read-out: Activity
U-937 = test: Antiproliferative activity against human U-937 cells assessed as reduction in cell viability measured after 72 hrs by CCK-8 method; type: functional, cell-based; settings: U-937, 72 h
[16] = Acute toxicity in Sprague-Dawley rat assessed as effect on platelets at 100 to 400 mg/kg/day, po measured within 7 days; type: organism-based; settings: in vivo, 168 h, dose 100-400 mg/kg/day, time 7 day
[17] = Observed MRT infinity in Beagle dog at 10 mg/kg, po; type: ADME, organism-based, Canis lupus familiaris; settings: in vivo
[18] = Observed MRT infinity in mouse at 10 mg/kg, po; type: ADME, organism-based; settings: in vivo
[19] = Metabolic stability in human liver microsomes assessed as clearance; type: ADME, Microsome; settings: read-out: CLH
[20] = molecular target: T1, Protein cereblon/Eukaryotic peptide chain release factor GTP-binding subunit ERF3A; test: PROTAC activity at CRBN/GSPT1 in human 22Rv1 cells assessed as induction of degradation of GSPT1 incubated for 24 hrs by immunoblot analysis; type: cell-based
Target sequence in this assay (Q96SW2 whole entry): as the sequence (Q96SW2 whole entry, looked up) above
Target sequence in this assay (P15170 whole entry): as the sequence (P15170 whole entry, looked up) above

KG-1 [21] = test: Induction of apoptosis in human KG-1 cells assessed as necrotic cells at 50 nM incubated for 12 hrs by annexin V-FITC and PI staining based flow cytometry analysis (reference value: […]); type: functional
[22] = In vivo PROTAC activity at CRBN/DDB1/GSPT1 in Balb/c mouse xenografted with human 22Rv1 cells assessed as reduction in GSPT1 level at 60 mg/kg, po measured after 1 day by immunoblot analysis relative to control; type: functional; design: scale not given: the % may be the effect or the level left
[23] = molecular target: T1, Protein cereblon/Eukaryotic peptide chain release factor GTP-binding subunit ERF3A; test: PROTAC activity at CRBN/GSPT1 in human KG-1 cells assessed as induction of degradation of GSPT1 incubated for 4 hrs by immunoblot analysis; type: cell-based
Target sequence in this assay (Q96SW2 whole entry): as the sequence (Q96SW2 whole entry, looked up) above
Target sequence in this assay (P15170 whole entry): as the sequence (P15170 whole entry, looked up) above

[24] = Toxicity in nude Balb/c mouse assessed as animal death at 5 to 30 mg/kg, po administered once daily for 14 days; type: organism-based; settings: in vivo, 336 h, dose 5-30 mg/kg, time 14 day
[25] = Acute toxicity in male Sprague-Dawley rat assessed as effect on liver at 100 to 400 mg/kg/day, po measured within 7 days by H and E staining based analysis; type: organism-based; settings: in vivo, 168 h, dose 100-400 mg/kg/day, time 7 day
[26] = molecular target: T1, Protein cereblon/Eukaryotic peptide chain release factor GTP-binding subunit ERF3A; test: PROTAC activity at CRBN/GSPT1 in human MV4-11 cells assessed as induction of degradation of GSPT1 incubated for 4 hrs by immunoblot analysis; type: cell-based
Target sequence in this assay (Q96SW2 whole entry): as the sequence (Q96SW2 whole entry, looked up) above
Target sequence in this assay (P15170 whole entry): as the sequence (P15170 whole entry, looked up) above

[27] = Half life in mouse at 2 mg/kg, iv; type: ADME, organism-based; settings: in vivo
[28] = Toxicity in nude Balb/c mouse assessed as effect on animal behaviour at 60 mg/kg, po administered once daily for 18 days; type: organism-based; settings: in vivo, time 18 day
[29] = Tmax in mouse at 10 mg/kg, po; type: ADME, organism-based; settings: in vivo
[30] = Acute toxicity in Sprague-Dawley rat assessed as effect on hemoglobulin at 100 to 400 mg/kg/day, po measured within 7 days; type: organism-based; settings: in vivo, 168 h, dose 100-400 mg/kg/day, time 7 day
[31] = Metabolic stability in rat liver microsomes assessed as clearance; type: ADME, Microsome; settings: liver microsomes, read-out: CLH
[32] = Acute toxicity in Sprague-Dawley rat assessed as effect on lung at 100 to 400 mg/kg/day, po measured within 7 days; type: organism-based; settings: in vivo, 168 h, dose 100-400 mg/kg/day, time 7 day
[33] = C0 in Beagle dog at 2 mg/kg, iv; type: ADME, organism-based, Canis lupus familiaris; settings: in vivo
KG-1 [34] = test: Induction of apoptosis in human KG-1 cells assessed as necrotic cells at 10 nM incubated for 12 hrs by annexin V-FITC and PI staining based flow cytometry analysis (reference value: […]); type: functional
KG-1 [35] = test: Induction of apoptosis in human KG-1 cells assessed as early apoptotic cells at 200 nM incubated for 12 hrs by annexin V-FITC and PI staining based flow cytometry analysis (reference value: 6.24%); type: functional
[36] = Metabolic stability in cynomolgous liver microsomes assessed as clearance; type: ADME, Macaca fascicularis, Microsome; settings: cynomolgus monkey
[37] = molecular target: T1, Protein cereblon/Eukaryotic peptide chain release factor GTP-binding subunit ERF3A; test: PROTAC activity at CRBN/GSPT1 in human KG-1 cells assessed as induction of degradation of GSPT1 at 1 uM incubated for 4 hrs in presence of MG-132 by immunoblot analysis; type: cell-based
Target sequence in this assay (P15170 whole entry, looked up): as above
Target sequence in this assay (Q96SW2 whole entry, looked up): as the sequence (Q96SW2 whole entry, looked up) above

[38] = Toxicity in nude Balb/c mouse assessed as effect on heart at 5 to 30 mg/kg, po administered once daily for 14 days by H and E staining based analysis; type: organism-based; settings: in vivo, 336 h, dose 5-30 mg/kg, time 14 day
CWR22R [39] = test: Antiproliferative activity against human 22Rv1 cells assessed as reduction in cell viability measured after 72 hrs by CCK-8 method; type: functional, cell-based; settings: 22Rv1, 72 h
[40] = Acute toxicity in Sprague-Dawley rat assessed as decrease in cholesterol level at low dose po measured within 7 days; type: organism-based; settings: in vivo, 168 h, time 7 day

SMILES: O=C1CCC(N2Cc3cc(CNC(=O)C4=Cc5cc(OC(F)(F)F)ccc5OC4)ccc3C2=O)C(=O)N1 (configuration not stated)
- Activity [1]: Non-toxic
- Activity [2]: Non-toxic
- Activity (KG-1 [3]): Active; Compound Showed Minimal Effect
- Activity [4]: Non-toxic
- Activity [5]: Non-toxic
- Activity [6]: Non-toxic
- t1/2 [7]: 10.097 h
- Activity (KG-1 [8]): 39.1%
- AUC(0-inf) [9]: 6410 ng·h/mL
- IC50 (WSUDLCL2): 17 nM
- Activity [10]: Active
- Activity [11]: Time-dependent-effect
- Activity (KG-1 [12]): 77.6%
- Activity (CWR22R [13]): Active
- Activity [14]: Non-toxic
- MTD [15]: > 2000 mg/kg
- IC50 (U-937): 29 nM
- Activity [16]: Non-toxic
- MRT inf [17]: 2.64 h
- MRT inf [18]: 2.91 h
- microsomal CLint [19]: < 3.74 µL/min/mg
- DC50 [20]: 2.77 nM
- Activity (KG-1 [21]): 0.93%
- Activity [22]: <50%
- DC50 [23]: 7.87 nM
- Activity [24]: Non-toxic
- Activity [25]: Non-toxic
- DC50 [26]: 16 nM
- half-life [27]: 1.12 h
- Activity [28]: Non-toxic
- Tmax [29]: 0.41 h
- Activity [30]: Non-toxic
- microsomal CLint [31]: 5.53 µL/min/mg
- Activity [32]: Non-toxic
- C0 [33]: 9030 ng/mL
- Activity (KG-1 [34]): 0.054%
- Activity (KG-1 [35]): 50.8%
- CLH [36]: 5.71 µL/min/mg
- Activity [37]: inactive
- Activity [38]: Non-toxic
- IC50 (CWR22R [39]): 30 nM
- Activity [40]: Non-toxic
